Measurements from ChEMBL document CHEMBL1201862, “PubChem BioAssay data set” (2004).
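Assay format: 96-well plates, 48-hour exposure. GI50: concentration for 50% inhibition of growth.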 Activity calls are given as the source filed them. Rule as the data show it: active = GI50 up to about 1.1 µM and inactive = higher.

Columns and labels:
Assay in all cases: growth of human tumour cells (NCI), 48 h
[1] = tested on: 786-0
[2] = tested on: A549
[3] = tested on: CCRF-CEM
[4] = tested on: DMS-273
[5] = tested on: HL-60
[6] = tested on: K562
[7] = tested on: LOX IMVI
[8] = tested on: MOLT-4
[9] = tested on: NCI-H522
[10] = tested on: OVCAR-4
[11] = tested on: OVCAR-5
[12] = tested on: SF-539
[13] = tested on: SK-OV-3
[14] = tested on: SNB-19
[15] = tested on: UACC-257
[16] = tested on: UACC-62
[17] = tested on: MDA-MB-231
[18] = tested on: MDA-MB-435
[19] = tested on: NCI/ADR-RES
[20] = tested on: SR

SMILES | GI50 [1] | GI50 [2] | GI50 [3] | GI50 [4] | GI50 [5] | GI50 [6] | GI50 [7] | GI50 [8] | GI50 [9] | GI50 [10] | GI50 [11] | GI50 [12] | GI50 [13] | GI50 [14] | GI50 [15] | GI50 [16] | GI50 [17] | GI50 [18] | GI50 [19] | GI50 [20]
O=C1C[C@@H]2CCCC[C@@H]2C12SCCS2 | > 100 µM (inactive) | > 100 µM (inactive) | > 100 µM (inactive) | > 100 µM (inactive) | 80 µM (inactive) | > 100 µM (inactive) | > 100 µM (inactive) | 69.8 µM (inactive) | 69 µM (inactive) | > 100 µM (inactive) | > 100 µM (inactive) | > 100 µM (inactive) | > 100 µM (inactive) | > 100 µM (inactive) | > 100 µM (inactive) | 77.3 µM (inactive) | – | – | – | –
O=c1[nH]nc2ccccc2c1Cl | 14.6 µM (inactive) | 29.3 µM (inactive) | 6.14 µM (inactive) | 16.3 µM (inactive) | – | 4.24 µM (inactive) | 17.6 µM (inactive) | 14 µM (inactive) | – | 11.2 µM (inactive) | 18.3 µM (inactive) | 15.6 µM (inactive) | 17.7 µM (inactive) | 16.1 µM (inactive) | 10.2 µM (inactive) | 12.8 µM (inactive) | – | – | – | –
COc1cccc2c1C(=O)C1(O)CCCCC21 (centres undefined) | > 100 µM (inactive) | > 100 µM (inactive) | > 100 µM (inactive) | > 100 µM (inactive) | > 100 µM (inactive) | > 100 µM (inactive) | > 100 µM (inactive) | > 100 µM (inactive) | > 100 µM (inactive) | > 100 µM (inactive) | > 100 µM (inactive) | > 100 µM (inactive) | > 100 µM (inactive) | > 100 µM (inactive) | > 100 µM (inactive) | > 100 µM (inactive) | – | – | – | –
N#Cc1cccc(N2C(=O)c3c(c(-c4ccccc4)c(-c4ccc(Sc5ccc(-c6c(-c7ccccc7)c7c(c(-c8ccccc8)c6-c6ccccc6)C(=O)N(c6cccc(C#N)c6)C7=O)cc5)cc4)c(-c4ccccc4)c3-c3ccccc3)C2=O)c1 | > 100 µM (inactive) | > 100 µM (inactive) | > 100 µM (inactive) | > 100 µM (inactive) | > 100 µM (inactive) | > 100 µM (inactive) | 78.2 µM (inactive) | 49.2 µM (inactive) | > 100 µM (inactive) | > 100 µM (inactive) | > 100 µM (inactive) | 65.2 µM (inactive) | – | 29.3 µM (inactive) | > 100 µM (inactive) | 61.7 µM (inactive) | – | – | – | –
O=C(c1ccco1)N(Cc1ccco1)C(=S)Nc1ccccc1 | 6.3 µM (inactive) | 29.7 µM (inactive) | 3.79 µM (inactive) | – | 1.79 µM (inactive) | 3.33 µM (inactive) | 7.21 µM (inactive) | 7.08 µM (inactive) | 16.9 µM (inactive) | 25.6 µM (inactive) | 36.5 µM (inactive) | 6.46 µM (inactive) | > 100 µM (inactive) | 46.9 µM (inactive) | 15.7 µM (inactive) | 14.1 µM (inactive) | 13.3 µM (inactive) | 10.6 µM (inactive) | 21.9 µM (inactive) | 3.1 µM (inactive)
CCCCCCCC(=O)N/N=C/c1ccc(Sc2nccn2C)c([N+](=O)[O-])c1 | 14.9 µM (inactive) | 27.9 µM (inactive) | 0.538 µM (active) | – | 0.27 µM (active) | 14.2 µM (inactive) | 10.4 µM (inactive) | 11.4 µM (inactive) | 12.2 µM (inactive) | 13.2 µM (inactive) | 18.2 µM (inactive) | 17 µM (inactive) | 26.7 µM (inactive) | 21.4 µM (inactive) | 13.7 µM (inactive) | 13 µM (inactive) | 15 µM (inactive) | 13.6 µM (inactive) | 17.7 µM (inactive) | 18.8 µM (inactive)
O=C(CNc1ccccc1[N+](=O)[O-])Nn1c(-c2ccccc2)nc2ccccc2c1=O | 18.9 µM (inactive) | 43.5 µM (inactive) | 15.8 µM (inactive) | – | 31.7 µM (inactive) | 16.3 µM (inactive) | 11.2 µM (inactive) | 16.1 µM (inactive) | > 10 µM (inactive) | 17 µM (inactive) | 22.3 µM (inactive) | 19.7 µM (inactive) | 30.7 µM (inactive) | 22.8 µM (inactive) | > 10 µM (inactive) | 10.7 µM (inactive) | 15.7 µM (inactive) | 24.5 µM (inactive) | 25.7 µM (inactive) | 18.2 µM (inactive)
O=[N+]([O-])c1cccc2nc3ccccc3c(NCCCN3CCOCC3)c12 | < 0.0106 µM (active) | < 0.0121 µM (active) | < 0.0199 µM (active) | – | 0.0302 µM (active) | 0.015 µM (active) | 0.0442 µM (active) | < 0.01 µM (active) | 0.0168 µM (active) | 0.0191 µM (active) | 0.0287 µM (active) | 0.0283 µM (active) | 0.0362 µM (active) | 0.0304 µM (active) | 0.0235 µM (active) | 0.0163 µM (active) | 0.0189 µM (active) | < 0.0117 µM (active) | 0.044 µM (active) | < 0.01 µM (active)
CCCCCCc1nn2c(-c3ccncc3)nnc2s1 | > 10 µM (inactive) | > 10 µM (inactive) | > 10 µM (inactive) | – | > 10 µM (inactive) | > 10 µM (inactive) | > 10 µM (inactive) | > 10 µM (inactive) | > 10 µM (inactive) | > 10 µM (inactive) | > 10 µM (inactive) | > 10 µM (inactive) | > 10 µM (inactive) | > 10 µM (inactive) | > 10 µM (inactive) | > 10 µM (inactive) | > 10 µM (inactive) | > 10 µM (inactive) | > 10 µM (inactive) | > 10 µM (inactive)
O=C(O)c1ccccc1/C=N/N=C1NCCCCN1 | > 100 µM (inactive) | > 100 µM (inactive) | > 100 µM (inactive) | – | > 100 µM (inactive) | > 100 µM (inactive) | > 100 µM (inactive) | > 100 µM (inactive) | 90.8 µM (inactive) | > 100 µM (inactive) | > 100 µM (inactive) | > 100 µM (inactive) | > 100 µM (inactive) | > 100 µM (inactive) | > 100 µM (inactive) | > 100 µM (inactive) | > 100 µM (inactive) | > 100 µM (inactive) | > 100 µM (inactive) | > 100 µM (inactive)
CCOC(=O)c1ccc(Nc2c3c(nc4ccccc24)CCCC3)cc1 | 29.2 µM (inactive) | > 38.6 µM (inactive) | 14.2 µM (inactive) | – | 3.22 µM (inactive) | 3.74 µM (inactive) | > 21.2 µM (inactive) | 3.22 µM (inactive) | 3.62 µM (inactive) | 46.7 µM (inactive) | > 60 µM (inactive) | 48.9 µM (inactive) | > 66.2 µM (inactive) | 41 µM (inactive) | > 86.1 µM (inactive) | 30.3 µM (inactive) | 26.6 µM (inactive) | 1.77 µM (inactive) | > 30.3 µM (inactive) | 25.4 µM (inactive)
